B1: TRAIL: an apoptosis-inducing factor applied to EO771 tumor cells (protein, UniProt P50592 1-291, looked up)
Tumor necrosis factor ligand …: MPSSGALKDLSFSQHFRMMVICIVLLQVLLQAVSVAVTYMYFTNEMKQLQDNYSKIGLACFSKTDEDFWDSTDGEILNRPCLQVKRQLYQLIEEVTLRTFQDTISTVPEKQLSTPPLPRGGRPQKVAAHITGITRRSNSALIPISKDGKTLGQKIESWESSRKGHSFLNHVLFRNGELVIEQEGLYYIYSQTYFRFQEAEDASKMVSKDKVRTKQLVQYIYKYTSYPDPIVLMKSARNSCWSRDAEYGLYSIYQGGLFELKKNDRIFVSVTNEHLMDLDQEASFFGAFLIN
B2: Aldoa: recombinant protein, tumor-suppressing protein candidate (protein, UniProt P05064 2-364, looked up)
Fructose-bisphosphate …: PHPYPALTPEQKKELSDIAHRIVAPGKGILAADESTGSIAKRLQSIGTENTEENRRFYRQLLLTADDRVNPCIGGVILFHETLYQKADDGRPFPQVIKSKGGVVGIKVDKGVVPLAGTNGETTTQGLDGLSERCAQYKKDGADFAKWRCVLKIGEHTPSALAIMENANVLARYASICQQNGIVPIVEPEILPDGDHDLKRCQYVTEKVLAAVYKALSDHHVYLEGTLLKPNMVTPGHACTQKFSNEEIAMATVTALRRTVPPAVTGVTFLSGGQSEEEASINLNAINKCPLLKPWALTFSYGRALQASALKAWGGKKENLKAAQEEYIKRALANSLACQGKYTPSGQSGAAASESLFISNHAY
B3: Eef1a1: recombinant protein, tumor-suppressing protein candidate (protein, UniProt P10126 2-462, looked up)
Elongation factor 1-alpha 1: GKEKTHINIVVIGHVDSGKSTTTGHLIYKCGGIDKRTIEKFEKEAAEMGKGSFKYAWVLDKLKAERERGITIDISLWKFETSKYYVTIIDAPGHRDFIKNMITGTSQADCAVLIVAAGVGEFEAGISKNGQTREHALLAYTLGVKQLIVGVNKMDSTEPPYSQKRYEEIVKEVSTYIKKIGYNPDTVAFVPISGWNGDNMLEPSANMPWFKGWKVTRKDGSASGTTLLEALDCILPPTRPTDKPLRLPLQDVYKIGGIGTVPVGRVETGVLKPGMVVTFAPVNVTTEVKSVEMHHEALSEALPGDNVGFNVKNVSVKDVRRGNVAGDSKNDPPMEAAGFTAQVIILNHPGQISAGYAPVLDCHTAHIACKFAELKEKIDRRSGKKLEDGPKFLKSGDAAIVDMVPGKPMCVESFSDYPPLGRFAVRDMRQTVAVGVIKAVDKKAAGAGKVTKSAQKAQKAK

Legend:
[1] = system: EO771 mammary tumor cells; assay: Wound-healing scratch assay; assay type: cell-based, mouse; conditions: inhibitor applied with iTS CM
Method: Two-dimensional motility assay. A wound-healing scratch motility assay was performed to measure 2-dimensional cell motility. Cells were seeded in 12-well plates, after cell attachment, a plastic pipette tip was used to scratch a gap on the cell layer. Images of the cell-free scratch zone were obtained via an inverted microscope at 0 h, and the areas newly occupied with cells were determined 48 h after scratching. The areas were quantified with Image J (National Institutes of Health, Maryland, USA).
Scratch assay. A wound-healing scratch assay was conducted to evaluate 2-dimensional migratory behavior. Approximately 4×10^5 cells were seeded in 12-well plates. After cell attachment, a plastic pipette tip was used to scratch a gap on the cell layer. After the removal of the floating cells, CM was added. Images of the cell-free scratch zone were collected at 0 h, and the areas newly occupied with cells were determined 24-48 h after scratching. The areas were quantified with IMAGE J™ (National Institutes of Health, Bethesda, MD, USA).

[2] = system: EO771 mammary tumor cells; assay: TRANSWELL invasion assay; assay type: cell-based, mouse; conditions: inhibitor applied with iTS CM
Method: Invasion assay. The invasion capacity of cancer cells was determined using a 24-well plate, TRANSWELL® chambers (Thermo Fisher Scientific, Waltham, MA, USA) with […] pore size and MATRIGEL™. Cell invasion was measured in TRANSWELL® chambers with a coating including MATRIGEL™ (100 μg/ml). The cells in 200 μL serum-free DMEM were placed on the upper chamber and 800 μL iTS CM was added in the lower chamber. After 24 h, the cells that had invaded the lower side of the membrane were stained with Crystal Violet. At least five randomly chosen images were taken under a microscope, and the average number of stained cells that represented the relative invasion was determined.

[3] = system: MDA-MB-231 breast cancer cells; assay: Tumor selectivity from MTT-based viability (tumor vs non-tumor cells); assay type: cell-based, human
Source text: (§1) Variations in tumor selectivity among the predicted tumor-suppressing proteins. Tumor-suppressing proteins may inhibit the progression of tumor cells but not inhibit the progression of non-tumor cells. Using the MTT-based viability, tumor selectivity was defined as a ratio of (reduction in MTT-based viability of tumor cells) to (reduction in MTT-based viability of non-tumor cells). The tumor selectivity may be above one to remove tumor cells and a larger value may signify a reduction in the inhibition of the growth of non-tumor cells. The tumor selectivity was determined using three tumor cells (4T1.2 mouse mammary tumor cells, EO771 mammary tumor cells, and MDA-MB-231 breast cancer cells) and three non-tumor cells (adipose cells, MLO-A5 osteocytes, and murine MSCs). […] Table 2 provides the tumor selectivity of 4T1.2 Oct4 CM, 4T1.2 c-Myc CM, and 10 tumor-suppressing protein candidates.

[4] = system: 4T1.2 mouse mammary tumor cells; assay: as above; assay type: cell-based
Source text: as §1

[5] = system: EO771 mammary tumor cells; assay: as above; assay type: cell-based, mouse; conditions: tumor cells EO
Source text: as §1

EO771 cells = assay: Western blot analysis; assay type: cell-based, mouse
Method: Western blot analysis. Cultured cells were lysed in a radio-immunoprecipitation assay buffer with protease inhibitors (Santa Cruz Biotechnology, Santa Cruz, CA, USA) and phosphatase inhibitors (Calbiochem, Billerica, MA, USA). After cell lysis, proteins were fractionated by 10-15% SDS gels and electro-transferred to polyvinylidene difluoride (“PVDF”) transfer membranes (Millipore, Billerica, MA, USA). After blocking 1 h with a blocking buffer (Bio-Rad), the membrane was incubated overnight with primary antibodies and then with secondary antibodies conjugated with horseradish peroxidase for 45 min (Cell Signaling, Danvers, MA, USA). Antibodies against β-catenin, cleaved-caspase 3, Runx2, Snail, Enolase-1 (Cell Signaling, Danvers, MA, USA), MMP9 (Santa Cruz, Dallas, TX, USA), TRAIL (Novus, Centennial, CO, USA), p53 (Invitrogen, Carlsbad, CA, USA), and β-actin as a control (Sigma, St. Louis, MO, USA), were employed. The level of proteins was determined using a SUPERSIGNAL™ west femto maximum sensitivity substrate (Thermo Scientific, Waltham, MA, USA), and a luminescent image analyzer (LAS-3000, Fuji Film, Tokyo, Japan) was used to quantify signal intensities.

Molecule | inhibitory effect of β-catenin-overexpressing iTS CM on migration [1] | inhibitory effect of β-catenin-overexpressing iTS CM on invasion [2] | Tumor selectivity ([3]; non-tumor cells A5) | Tumor selectivity ([3]; non-tumor cells Adipose) | Tumor selectivity ([3]; non-tumor cells MSC) | Tumor selectivity ([4]; non-tumor cells A5) | Tumor selectivity ([4]; non-tumor cells Adipose) | Tumor selectivity ([4]; non-tumor cells MSC) | Tumor selectivity ([5]; non-tumor cells A5) | Tumor selectivity ([5]; non-tumor cells Adipose) | Tumor selectivity ([5]; non-tumor cells MSC) | level of cleaved caspase 3 (EO771 cells)
NCCOCCOCCNC(=O)Cc1ccc(Nc2nc(NCc3ccc(F)cc3)nc(NCC3CCCCC3)n2)cc1 [AP-III-a4, reference compound] | suppressed the inhibitory effect | suppressed the inhibitory effect |  |  |  |  |  |  |  |  |  | 
Flna: recombinant protein, tumor-suppressing protein candidate |  |  | 1.54 | 1.28 | 1.13 | 1.43 | 1.19 | 1.05 | 1.97 | 1.64 | 1.45 | 
Myh9: recombinant protein, tumor-suppressing protein candidate |  |  | 0.23 | 0.46 | 0.66 | 0.25 | 0.48 | 0.70 | 0.32 | 0.64 | 0.93 | 
Plec: recombinant protein, tumor-suppressing protein candidate |  |  | 1.16 | 1.10 | 0.91 | 1.33 | 1.28 | 1.06 | 1.95 | 1.86 | 1.54 | 
B1 |  |  |  |  |  |  |  |  |  |  |  | increased
B2 |  |  | 1.75 | 1.97 | 0.90 | 2.72 | 3.06 | 1.39 | 1.87 | 2.10 | 0.96 | 
B3 |  |  | 0.86 | 0.52 | 0.94 | 1.23 | 0.74 | 1.34 | 0.96 | 0.58 | 1.05 | 

Reference: US20240082313A1, “PHARMACEUTICAL COMPOSITIONS AND THEIR METHODS OF USE” (The Trustees of Indiana University, priority 2021, published 2024)
